Data published in publication PMC6545003, “Cytotoxic and cell cycle arrest properties of two steroidal alkaloids isolated from Holarrhena floribunda (G. Don) T. Durand & Schinz leaves” (BMC Complementary and Alternative Medicine, 2019).
Where two headings read alike, the source gives them in different places.

How the values were obtained:
[1] = tested on: MCF-7 cells; assay: MTT reduction assay; format: cell-based, human; details: for Selectivity index: MCF-7 versus non-cancerous KMST-6
Description: (§3) Viable cells were seeded at a density of 5 x10^4 cells/ml (100 μl/well) in 96-well plates and incubated in a humidified atmosphere of 5% CO2 and 95% air at 37°C for 24 h to form a cell monolayer. After 24 h, the cell culture medium was aspirated and 100 μl fresh medium containing varying concentrations of test compounds in log10 doses were added to the cells and the 96-well plates incubated for a further 24 h [16, 17].
(§4) After the 24 h treatments, 20 μl of 5 mg/ml MTT (prepared in PBS) was added to each well and the 96-well plates incubated for 3 h at 37°C in a 5% CO2 atmosphere. The supernatant was aspirated and 150 μl of isopropanol added to each well after which the plate was gently shaken for 15 min to solubilize the formazan crystals and the absorbance was measured at 560 nm using a Glomax Multi Detection System (Promega, USA). The percentage inhibition of cell proliferation was calculated using the formula below and IC50 values computed by non-linear regression analysis of log dose-response sigmoidal curves using GraphPad Prism version 6.05 for Windows (GraphPad Software, La Jolla California USA, www.graphpad.com). %Inhibition of Proliferation=100‐TestOD/UntreatedODx100%

[2] = tested on: KMST-6 non-cancerous fibroblast cells; assay: MTT reduction assay; format: cell-based, human
Description: as §3, §4

[3] = tested on: HT-29 cells; assay: MTT reduction assay; format: cell-based, human; details: for Selectivity index: HT-29 versus non-cancerous KMST-6
Description: as §3, §4

[4] = tested on: HeLa cells; assay: MTT reduction assay; format: cell-based, human; details: for Selectivity index: HeLa versus non-cancerous KMST-6; for IC50: HeLa
Description: as §3, §4

[5] = tested on: MCF-7 cells; assay: BrdU incorporation assay (chemiluminescent ELISA); format: cell-based, human; details: MCF-7, IC50 concentration
Description: (§1) Cells were seeded at a density of 5 × 10^4 cells/well in black-walled 96-well microtiter plates and incubated for 24 h at 37 °C in a CO2 incubator to form a monolayer. The cells were treated for 12, 24 and 48 h with the isolated compounds at concentrations equivalent to the IC50 concentrations (as determined by the MTT reduction assay). Cell proliferation was determined using the ELISA-BrdU (5-bromo-2′-deoxyuridine) chemiluminescence assay kit (Roche, Germany), according to the manufacturer’s instruction, and expressed as the percentage DNA synthesis relative to the untreated control.

[6] = tested on: HeLa cells; assay: BrdU incorporation assay (chemiluminescent ELISA); format: cell-based, human; details: IC50 concentration
Description: as §1

[7] = tested on: HT-29 cells; assay: BrdU incorporation assay (chemiluminescent ELISA); format: cell-based, human; details: HT-29, IC50 concentration
Description: as §1

[8] = tested on: MCF-7 cells; assay: Cell cycle analysis, PI flow cytometry; format: cell-based, human; details: MCF-7, IC50 concentration
Description: (§2) Cells were seeded at a density of 2 × 10^5 cells/well in 6-well plates and incubated for 24 h at 37 °C in a CO2 incubator to form a monolayer. The cells were treated for 12 and 24 h with the isolated compounds at concentrations equivalent to the IC50 concentrations (as determined by the MTT reduction assay). After treatment, the cells were detached with trypsin, washed in PBS and the cell pellet was resuspended in 1 ml of 1% paraformaldehyde and placed on ice for 30 min. Ethanol (70%, v/v) was slowly added to the cells while the sample was vortexed to reduce cell clumping. The cells were stored at − 20 °C for 48 h, after which the cells were recovered by centrifugation at 4000 rpm for 10 min. The cell pellets were washed twice in PBS and then resuspended in 1 ml PBS containing 100 μg/ml RNase and 40 μg/ml propidium iodide. Cell cycle phase distribution was determined using a FACS Calibur Flow Cytometer (BD Biosciences Franklin Lakes, NJ, USA). The DNA content of 50,000 events was determined by ModFit software (Verity Software House, Topsham, ME), which provided histograms to evaluate the cell cycle distribution.

[9] = tested on: HeLa cells; assay: Cell cycle analysis, PI flow cytometry; format: cell-based, human; details: IC50 concentration, 24 h
Description: as §2

[10] = tested on: HT-29 cells; assay: Cell cycle analysis, PI flow cytometry; format: cell-based, human; details: HT-29, IC50 concentration, 12 and 24 h
Description: as §2

[11] = parameters: method as in doi:10.1135/cccc20041506; details: at a neuro-active concentration; cited from earlier work
[12] = Homo sapiens, MCF7, MCF-7, MTT, 24 h treatment, read-out: IC50
[13] = Homo sapiens, Fibroblast, KMST-6, MTT, 24 h treatment, read-out: IC50
[14] = Homo sapiens, HT-29, MTT, 24 h treatment, read-out: IC50
[15] = Homo sapiens, MTT, 24 h treatment, read-out: IC50

Compound | Selectivity index [1] | Selectivity index [3] | Selectivity index [4] | IC50 [1, 12] [µM] | IC50 [2, 13] [µM] | Change in DNA synthesis between 12 and 24 h [7] | IC50 [3, 14] [µM] | Cell population in G2/M-phase ([8]; 12 h) | Cell population in G2/M-phase ([8]; 24 h) | Cell population in G2/M phase [10] | IC50 [4, 15] [µM] | other results
N.N.[Cl][Pt][Cl] [Cisplatin] | 0.58 | 0.87 | 2.11 | – | – | – | – | – | – | – | – | IC50 ([1]; MCF-7, MTT, 24 h treatment, read-out: IC50): 10.6 µM; IC50 ([2]; KMST-6, MTT, 24 h treatment, read-out: IC50): 6.14 µM; IC50 ([3]; HT-29, MTT, 24 h treatment, read-out: IC50): 7.07 µM; IC50 ([4]; MTT, 24 h treatment, read-out: IC50): 2.91 µM
CC(=O)[C@H]1CC[C@H]2[C@@H]3CC=C4C[C@H](N)CC[C@]4(C)[C@H]3CC[C@]12C [Compound 1, holamine] | – | 3.82 | 2.00 | 42.8 | 103 | significant reduction | 31.1 | significant increase | not significant | significant increase | 51.4 | Change in DNA synthesis between 12 and 24 h [5]: significant reduction; Change in DNA synthesis between 24 and 48 h [6]: significant reduction; Selectivity index ([3]; listed as C1): 3.31; Cell population in G2/M-phase [9]: significant decrease
CC(=O)[C@H]1CC[C@H]2[C@@H]3CC[C@H]4C[C@H](N)CC[C@]4(C)[C@H]3CC[C@]12C [Compound 2, funtumine] | 1.85 | 3.31 | – | – | – | significant reduction | – | significant increase | significant increase | significant increase | – | IC50 ([1]; Homo sapiens, MCF7, 24 h): 52.7 µM; IC50 ([2]; Homo sapiens, Fibroblast, 24 h): 85.5 µM; Change in DNA synthesis between 24 and 48 h [5]: significantly (P < 0.05) reduced; Change in DNA synthesis between 12 and 24 h [6]: significant reductions; Change in DNA synthesis between 24 and 48 h [7]: significant reduction; Selectivity index ([3]; listed as C2): 3.82; IC50 ([3]; Homo sapiens, HT-29, 24 h): 22.4 µM; IC50 ([4]; Homo sapiens, 24 h): 46.2 µM; Cytotoxicity [11]: no cytotoxicity
COc1cccc2c1C(=O)c1c(O)c3c(c(O)c1C2=O)C[C@@](O)(C(=O)CO)C[C@@H]3O[C@H]1C[C@H](N)[C@H](O)[C@H](C)O1 [Dox, Doxorubicin] | 0.57 | 0.27 | 1.31 | 8.2 | 4.68 | – | 17.4 | – | – | – | 3.57 | –
